According to ChEMBL document CHEMBL1129720, “(S)-4-amino-5-chloro-3-iodo-2-methoxy-N-(1-azabicyclo[2.2.2]oct-3-yl)benzamide (TRIZAC), a high-affinity ligand for the 5-HT-3 receptor” (Bioorg Med Chem Lett, 1996):

Columns and labels:
[1] = biological target: T1, 5-hydroxytryptamine receptor 3A (Rattus norvegicus, UniProt P35563); assay: Compound was tested for its binding affinity towards 5-HT-3 receptor in whole rat brain using (S)-[125I]-zacopride as the radioligand.
T1 sequence (P35563 whole entry): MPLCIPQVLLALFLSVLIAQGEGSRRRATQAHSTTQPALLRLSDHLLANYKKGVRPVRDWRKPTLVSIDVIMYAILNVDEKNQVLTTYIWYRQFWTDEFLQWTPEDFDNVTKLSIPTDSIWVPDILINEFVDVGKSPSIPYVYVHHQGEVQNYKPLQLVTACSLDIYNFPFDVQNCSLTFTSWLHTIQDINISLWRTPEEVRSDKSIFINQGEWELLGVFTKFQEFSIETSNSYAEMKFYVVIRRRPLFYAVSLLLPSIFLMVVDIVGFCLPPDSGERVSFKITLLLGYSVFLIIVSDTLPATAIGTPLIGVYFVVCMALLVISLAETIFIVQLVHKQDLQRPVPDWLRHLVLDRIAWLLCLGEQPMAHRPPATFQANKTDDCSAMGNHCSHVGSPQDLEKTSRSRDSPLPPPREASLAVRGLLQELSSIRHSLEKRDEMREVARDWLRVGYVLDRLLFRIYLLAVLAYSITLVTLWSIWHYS

[2] = biological target: T1, 5-hydroxytryptamine receptor 3A; assay: Compound was tested for its binding affinity towards 5-hydroxytryptamine 3 receptor in whole rat brain using [125I]DAIZAC as the radioligand.
[3] = Apparent lipophilicity value of the compound.; format: physicochemical; conditions: octanol/water
[4] = biological target: T1, 5-hydroxytryptamine receptor 3A; assay: Compound was tested for its binding affinity towards 5-hydroxytryptamine 3 receptor
[5] = biological target: T1, 5-hydroxytryptamine receptor 3A; assay: Compound was tested in vitro for its antagonistic activity against 5-hydroxytryptamine 3 receptor in rat CNS.; format: functional
[6] = biological target: T1, 5-hydroxytryptamine receptor 3A; assay: Compound was tested for its binding affinity towards 5-hydroxytryptamine 3 receptor in whole rat brain using (S)-[125I]-zacopride as the radioligand.
[7] = biological target: T1, 5-hydroxytryptamine receptor 3A; assay: Compound was tested in vitro for its antagonistic activity against 5-hydroxytryptamine 3 receptor; format: functional
[8] = biological target: T1, 5-hydroxytryptamine receptor 3A; assay: Compound was tested for its antagonistic activity against 5-hydroxytryptamine 3 receptor in rat brain using [3H]zacopride as the radioligand.; format: functional, tissue-based

COc1c(C(=O)N[C@@H]2CN3CCC2CC3)cc(Cl)c(N)c1I
Ki [1]: 0.052 nM
Ki [2]: 0.075 nM
logD [3]: 2.12
Ki [4]: 0.05 nM

COc1cc(N)c(I)cc1C(=O)NC1CN2CCC1CC2 (centres undefined)
Kd [5]: 2.6 nM
Ki [2]: 1.37 nM
Ki [6]: 1.07 nM

COc1c(I)cc(Cl)cc1C(=O)N[C@@H]1CN2CCC1CC2
Kd [7]: 0.15 nM

COc1cc(N)c(Cl)cc1C(=O)NC1CN2CCC1CC2 (centres undefined) [ZACOPRIDE]
Kd [8]: 0.6 nM
